Assay results: patent US20040224922A1, “Use of charged dextran as a mucoactive agent and methods and pharmaceutical compositions relating thereto” (priority 1999, published 2004)

Tests used:
[1] = Viscoelasticity of cystic fibrosis sputum in vitro by magnetic rheometry; set-up: species or system human; conditions: final concentration 8 mg/ml in CF sputum
Text: FIG. 5 is a bar graph illustrating the effect of heparin and dextran sulfate on […] of sputum from 7 cystic fibrosis human patients as determined by magnetic rheometry, expressed as the average log G* over 1-100 rad/s after treatment with saline, heparin (MW 6000), Dextran Sulfate (MW 5000, about 17% sulphur by weight), heparin (dimer, highly (fully) sulfated, H-9267: C12H13NO19S3Na4), or heparin (dimer, low sulfate, partially de-sulfated H-9142, C12H18NO13SNa) to a final concentration of about 8 mg/ml (or […]) of sputum. […] The effect was similar to heparin, M.W. 6000.
Mucus Viscoelasticity Measurements: The magnetic microrheometer technique was used to measure the viscosity and elasticity of the dog mucus samples [21]. A […] steel ball was positioned in a 5-10 mL sample of mucus, and the motion of this sphere under the influence of an oscillating electromagnetic field gradient was used to determine the rheological properties of the mucus. The image of the steel ball was projected via a microscope onto a pair of photocells, whose output was amplified and transmitted to an oscilloscope. […]
(§1) The parameters of mucus viscoelasticity determined were the rigidity index or mechanical impedance, i.e. G*, reported here on a log scale, expressing the average vector sum of “viscosity+elasticity” over the frequency range 1-100 rad/s, and tan d, the mechanical loss tangent, expressing the ratio of viscous to elastic deformation. These viscoelastic parameters can be used to predict mucus clearability by ciliary and cough mechanisms, based on the measured Theological properties and observations of clearance from model studies.
(a) In vitro Sputum from 7 cystic fibrosis human patients were measured with regards to viscoelasticity after treatment with saline, heparin (MW˜6000), dextran sulfate (MW˜5000), heparin (dimer, highly sulfated), or heparin (dimer, de-sulfated) in accordance with the protocols for measuring viscoelasticity described in Example 1. […]

[2] = system: healthy mongrel dogs; assay: Tracheal transepithelial potential difference (PD) by agar bridge technique after aerosol; type: in vivo, dog
Experimental: (§2) Seven healthy mongrel dogs (6 male/1 female), weight 21-28 kg, with no respiratory tract bacterial infections, were studied. The dogs were anesthetized with sodium pentobarbital (ca 30 mg/kg i.v., supplemented as required) and intubated with a cuffed endotracheal tube. They were administered Ringer aerosol first, followed by 6.5 mg/ml dextran sulfate, 20 mg/ml dextran sulfate, and 65 mg/ml dextran sulfate by aerosol. Each aerosolization was of 30 minutes duration, with a rest period of 30 minutes before the beginning of the next aerosol delivery. The aerosols were generated and delivered by a Pari LC STAR nebulizer using an air flow rate of 8 l/min, which results in an output of 0.58 ml/min and particles of […] mass median diameter. The nebulizer was loaded in each case with 10 ml of solution. The amount of solution remaining in the nebulizer after 30 minutes was recorded. A T-tube connection was provided to the endotracheal tube during aerosol delivery to ensure a minimal deadspace for ventilation and adequate delivery of the aerosol. The dogs breathed spontaneously throughout the experiment.
(§3) Tracheal mucus velocity (TMV) and tracheal potential difference (PD) was measured, and mucus samples were collected for each concentration of delivered drug. TMV was measured twice for each dose, i.e. during aerosolization, between 15 and 25 minutes from the start of aerosol delivery (designated as period-1), and 10-20 minutes after completion of aerosolization (designated as period-2). PD was measured during the period 5 to 10 minutes following each aerosol. […]
Transepithelial Potential Difference (PD, -mV); PD was measured by using two flexible microelectrodes (agar bridges of PE 160 size) saturated with KCl connected to calomel half cells, one for reference and the other for testing. […] The PD value was recorded when a steady state, value was achieved and remained stable for a least 30 seconds. […]

[3] = system: healthy mongrel dogs; assay: Tracheal mucociliary velocity (TMV) by charcoal particle displacement; type: in vivo, dog
Experimental: as §2, with “The dogs breathed spontaneously throughout the experiment.” left out
as §3
Tracheal Mucociliary Velocity (TMV, mm/min): TMV was determined by observing the rate of charcoal marker particle transport in the lower trachea. Under bronchoscopic visualization, ca, 5 mL of a charcoal suspension (Charac-50 diluted in Ringer's 1:10) was deposited on a lateral surface of the lower trachea 1-2 cm above the carina, and the rate of cephalad progression of the leading edge of the charcoal spot was monitored over the course of 10 minutes by gradually withdrawing the bronchoscope and recording its position relative to the endotracheal tube. […]

[4] = system: healthy mongrel dogs; assay: Solids content (% SC) of collected airway secretion; type: in vivo, dog
Experimental: as §2, §3
Solids content (wet:dry weight ratio): A drying apparatus and microbalance were used to calculate the dry weight and wet weight of the collected secretion, from which the percent solids content (% SC) was calculated. […] These dried samples were then reweighed, and % SC was calculated from ratio of dry to wet weight.

[5] = system: healthy mongrel dogs; assay: Tolerability / toxic effects of aerosol inhalation in dogs; type: in vivo, dog
Experimental: Seven healthy mongrel dogs (6 male/1 female), weight 21-28 kg, with no respiratory tract bacterial infections, were studied. The dogs were anesthetized with sodium pentobarbital (ca 30 mg/kg i.v., supplemented as required) and intubated with a cuffed endotracheal tube. They were administered Ringer aerosol first, followed by 6.5 mg/ml dextran sulfate, 20 mg/ml dextran sulfate, and 65 mg/ml dextran sulfate by aerosol. Each aerosolization was of 30 minutes duration, with a rest period of 30 minutes before the beginning of the next aerosol delivery. The aerosols were generated and delivered by a Pari LC STAR nebulizer using an air flow rate of 8 l/min, which results in an output of 0.58 ml/min and particles of 2.0 mm mass median diameter. The nebulizer was loaded in each case with 10 ml of solution. The amount of solution remaining in the nebulizer after 30 minutes was recorded. A T-tube connection was provided to the endotracheal tube during aerosol delivery to ensure a minimal deadspace for ventilation and adequate delivery of the aerosol. The dogs breathed spontaneously throughout the experiment.

[6] = system: healthy mongrel dogs; assay: Tracheal mucus viscoelasticity by magnetic microrheometry after aerosol; type: in vivo, dog
Experimental: as §2
(§4) Tracheal mucus velocity (TMV) and tracheal potential difference (PD) was measured, and mucus samples were collected for each concentration of delivered drug. TMV was measured twice for each dose, i.e. during aerosolization, between 15 and 25 minutes from the start of aerosol delivery (designated as period-1), and 10-20 minutes after completion of aerosolization (designated as period-2). PD was measured during the period 5 to 10 minutes following each aerosol. Mucus was collected twice for each aerosol, once immediately after 30 minutes of aerosolization and a second time after an additional 30 minutes of spontaneous breathing.
All samples of dog mucus collected from endotracheal tubes were placed in 1.5 ml Eppendorf tubes for measurement of viscoelasticity by magnetic rheometry. After initial rheological testing, the mucus samples were preserved at −80° C. for subsequent analysis of collection rate and solids content.
Mucus Viscoelasticity Measurements: The magnetic microrheometer technique was used to measure the viscosity and elasticity of the dog mucus samples [21]. A […] steel ball was positioned in a 5-10 mL sample of mucus, and the motion of this sphere under the influence of an oscillating electromagnetic field gradient was used to determine the rheological properties of the mucus. The image of the steel ball was projected via a microscope onto a pair of photocells, whose output was amplified and transmitted to an oscilloscope. By plotting the displacement of the ball against the magnetic driving force, the viscoelastic properties of the mucus were ascertained.
as §1
(b) In vivo Seven healthy dogs were anesthetized, intubated and treated via aerosol with heparin sodium (MW 5000-6000) or dextran sulfate (MW 5000) and mucus viscoelasticity, transepithelial potential difference (PD) and tracheal mucus velocity (TMV) were determined, in accordance with the protocols described in Example 1 above. Non-lactated Ringer's solution was used as control. […] These changes were accompanied by a nonsignificant, upward trend in TMV, to approximately 130% of control. However, changes might be even more pronounced in animals with initially rigid mucus.

[7] = system: healthy mongrel dogs; assay: Mucus collection weight (MCW) by endotracheal tube method; type: in vivo, dog
Experimental: as §2, §4
Mucus Collection Weight (MCW, mg/30 min): Tracheal mucus was collected by the endotracheal tube (ETT) method, which involves the removal of mucus adherent to the ETT after extubation. Mucus collections were performed twice after each aerosol, once by immediately removing the ETT following aerosol inhalation, and the second 30 minute after inhalation, after re-installing a clean ETT The mucus samples, which had been frozen, were thawed and weighed by microbalance, to determine MCW, an index of flux, and indirectly of the rate of secretion.

[8] = system: human subjects; conditions: oral, human subjects [34]; cited from earlier work

## N[C@H]1C(O)O[C@H](CO)[C@@H](O[C@@H]2OC(C(=O)O)=C[C@H](O)[C@H]2OS(=O)(=O)O)[C@@H]1O (stereo partly shown) [de-sulfated heparin dimer]
[1]
  viscoelasticity (average log G* over 1-100 rad/s) compared to saline control: no significant improvement

## O=C(O)C1=C[C@H](O)[C@@H](OS(=O)(=O)O)[C@H](O[C@H]2[C@H](O)[C@@H](NS(=O)(=O)O)C(O)O[C@@H]2COS(=O)(=O)O)O1 (stereo partly shown) [highly sulfated heparin dimer]
[1]
  viscoelasticity (average log G* over 1-100 rad/s) compared to saline control: significant decrease in viscoelasticity

## Dextran sulfate, sodium salt [DexSO4]
[2]; 65 mg/ml aerosol, vs Ringer control
  mean increase in PD (maximal change): 9.86 mV
[2]; after 30-minute aerosol at 6.5, 20 and 65 mg/ml, 7 dogs
  PD compared with Ringer control: increased significantly
[3]; 6.5 mg/ml aerosol (first dose), non-significant, p=0.066
  TMV, % of baseline: 128 % of baseline
[3]; aerosol 6.5-65 mg/ml, during and after aerosolization
  change in mucociliary velocity (TMV): no significant change
[4]; 65 mg/ml-1 (Ringer-1: 6.16±0.20%), p=0.042
  solids content (% SC) of collected fluid: 9.27±1.02%
[4]; 65 mg/ml-2 (Ringer-2: 6.87±0.92%), p=0.009
  solids content (% SC) of collected fluid: 10.78%
[4]; increasing concentrations 6.5, 20, 65 mg/ml
  effect on mucus % solids content: significant increase
[5]; aerosol 6.5, 20, 65 mg/ml
  bronchial mucosal appearance: remained normal
[5]; aerosol 6.5, 20, 65 mg/ml, 30 min each, all seven dogs
  cough or other side effects during inhalation: without significant cough or other side effects
[5]; present study, aerosol in dogs
  toxic effects: no toxic effects
[6]; aerosol 6.5-65 mg/ml
  mucus recoil parameter, tan d: no significant changes
[6]; aerosol at 6.5 and 65 mg/ml
  average log G* compared with respective Ringer control: significant decrease
[6]; during 65 mg/ml aerosol
  decrease in G* expressed as a factor: 2.61
[6]; during 65 mg/ml aerosol, vs Ringer, p=0.021
  mean decrease in average log G* (1-100 rad/s): 0.42 log units
[6]; in vivo, healthy dog mucus
  effective concentration range relative to neutral dextran (reduced viscoelastic modulus, predicted clearance): half-log lower concentration range
[7]; 6.5 mg/ml-1 (collected immediately after aerosol), wet weight
  mucus collection weight (MCW, mg/30 min): 4.35 ± 0.67 mg
[7]; 20 mg/ml-1, wet weight
  mucus collection weight (MCW, mg/30 min): 4.47 ± 0.59 mg
[7]; 65 mg/ml-1, wet weight
  mucus collection weight (MCW, mg/30 min): 5.64 ± 1.14 mg
[7]; 6.5-65 mg/ml aerosol
  change in mucus collection weight with increasing concentration: no change

## dextran sulfate [dextran sulfate (m.w. 7000)]
[8]
  absorbability: poor absorbablity
  anticoagulant effect: little anticoagulant effect
  other safety concerns: no other apparent safety concerns

## heparin [heparin, MW 6000]
[1]
  viscoelasticity (average log G* over 1-100 rad/s) compared to saline control: similar

## heparin sodium [reference compound]
[2]; 6.5 mg/ml aerosol, significant decrease, Ringer control
  PD, % of control: 55.1 % of control
[3]; 6.5 mg/ml aerosol, nonsignificant upward trend
  TMV, % of control: approximately 130 % of control
[6]; 6.5 mg/ml aerosol, significantly decreased
  mucus viscoelasticity (G*), % of control: 36 % of control
